Consider 25 compounds from patent US20260184687A1, “DIHYDROINDENE DERIVATIVES AS MALT1 INHIBITORS” (C4X Discovery Limited, priority 2022, published 2026).

The target in one experiment is T1, FL hMALT1 enzyme (Homo sapiens, UniProt Q9UDY8).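 Note: Cell-free protease assay: enzyme preincubated with compound 30 min at room temperature, then cleavage of fluorogenic Ac-LVSR-AMC substrate (100 µM) tracked by fluorescence (ex 360/em 460 nm).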
T1 sequence (Q9UDY8 1-824): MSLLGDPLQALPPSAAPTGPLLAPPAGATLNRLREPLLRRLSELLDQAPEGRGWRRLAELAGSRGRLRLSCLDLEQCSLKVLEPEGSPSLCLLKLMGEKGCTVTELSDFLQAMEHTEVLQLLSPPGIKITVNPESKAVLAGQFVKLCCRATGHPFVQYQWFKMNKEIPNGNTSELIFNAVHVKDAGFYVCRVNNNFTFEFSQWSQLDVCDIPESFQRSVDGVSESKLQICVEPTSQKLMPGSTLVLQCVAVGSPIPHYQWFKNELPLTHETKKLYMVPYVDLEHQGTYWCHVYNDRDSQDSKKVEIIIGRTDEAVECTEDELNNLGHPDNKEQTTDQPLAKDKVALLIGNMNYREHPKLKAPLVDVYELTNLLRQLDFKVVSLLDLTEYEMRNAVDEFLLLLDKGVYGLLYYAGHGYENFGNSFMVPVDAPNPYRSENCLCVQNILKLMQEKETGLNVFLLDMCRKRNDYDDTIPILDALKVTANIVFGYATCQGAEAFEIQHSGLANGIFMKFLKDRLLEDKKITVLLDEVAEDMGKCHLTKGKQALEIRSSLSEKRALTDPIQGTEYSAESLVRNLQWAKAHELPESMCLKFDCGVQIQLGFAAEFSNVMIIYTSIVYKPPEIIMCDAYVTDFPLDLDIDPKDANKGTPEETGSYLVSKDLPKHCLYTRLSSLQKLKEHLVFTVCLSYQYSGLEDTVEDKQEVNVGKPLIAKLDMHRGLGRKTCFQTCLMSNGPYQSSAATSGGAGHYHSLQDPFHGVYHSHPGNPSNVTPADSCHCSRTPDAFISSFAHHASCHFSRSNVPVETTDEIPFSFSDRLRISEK
As to the kind of experiment: biochemical.

Experiment [1] has as its target MALT1-GS-Ub (6-His-hMALT-1 residues 339-715 fused to ubiquitin) (Homo sapiens, UniProt Q9UDY8). As to the kind of experiment: biochemical.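 Note: in vitro MALT1 protease assay: enzyme preincubated with compound 30 min at room temperature, then cleavage of fluorogenic Ac-LVSR-AMC substrate (100 µM) followed by fluorescence every 15 min.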
Experiment [2] has as its system IL-2 release from stimulated Jurkat cells. The experiment in a line: Human IL-2 Release Phenotypic Assay (Assay 3). The class given is cell-based. Conditions: Jurkat cells (clone E6-1), 200 ng/mL PMA + 300 ng/mL ionomycin, IL-2 by ELISA. In outline: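 Jurkat E6-1 cells in RPMI1640/10% FBS were seeded at 50 000 cells/well and incubated overnight at 37° C. Half-log compound dilutions (0.5% final DMSO) were added for 30 min, then cells were stimulated with 200 ng/mL PMA + 300 ng/mL ionomycin for 48 h. IC50 came from a 4-parameter non-linear regression fit.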
(In an ELISA, binding on a coated surface is turned into a signal by an enzyme label.)

MALT1-GS-Ub (6-His-hMALT-1 residues 339-715 fused to ubiquitin), sequence (Q9UDY8 with tags, fused parts or gaps limits assumed): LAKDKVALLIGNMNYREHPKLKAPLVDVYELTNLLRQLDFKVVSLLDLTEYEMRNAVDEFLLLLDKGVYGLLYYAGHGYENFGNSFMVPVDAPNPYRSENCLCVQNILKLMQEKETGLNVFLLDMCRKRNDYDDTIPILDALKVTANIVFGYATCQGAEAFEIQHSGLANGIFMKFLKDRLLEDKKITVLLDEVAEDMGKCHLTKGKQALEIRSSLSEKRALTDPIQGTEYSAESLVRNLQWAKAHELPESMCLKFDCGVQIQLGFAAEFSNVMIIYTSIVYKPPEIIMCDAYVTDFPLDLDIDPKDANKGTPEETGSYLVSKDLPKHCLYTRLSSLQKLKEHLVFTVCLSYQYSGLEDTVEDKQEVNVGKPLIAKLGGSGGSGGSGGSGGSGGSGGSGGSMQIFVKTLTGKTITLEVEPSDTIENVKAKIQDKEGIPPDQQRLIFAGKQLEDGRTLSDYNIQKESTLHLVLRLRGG

On to `CN(C(=O)C1CNC1)C(c1ccc(NC2Cc3ccccc3C2(C)C)cn1)C(F)(F)F` (single isomer, unassigned) [Example 85, N-(1-(5-((1,1-Dimethyl-2,3-dihydro-1H-inden-2-yl)amino)pyridin-2-yl)-2,2,2-trifluoroethyl)-N-methylazetidine-3-carboxamide], for which the values for the IC50 (at FL hMALT1 enzyme; in experiment [1]; in experiment [2] (48 hours)) were 0.62 µM, 0.61 µM and 1.94 µM, respectively.
For `CC(=O)N1CC(OC(=O)N(C)[C@@H](c2ccc(NC3Cc4ccccc4C3(C)C)cc2)C(F)(F)F)C1` (single isomer, unassigned) [Example 57], the IC50 (in general, the point on the concentration scale where inhibition reaches its midpoint) on FL hMALT1 enzyme came to 0.091 µM; in experiment [1], 0.16 µM; in experiment [2] (48 hours), 3.69 µM.
In the case of `COC1c2ccccc2CC1Nc1ccc([C@H](N(C)C(=O)C2CCS(=O)(=O)CC2)C(F)(F)F)cc1` (single isomer, unassigned) [Example 10], the concentration for half-maximal inhibition (IC50) is 0.12 µM against FL hMALT1 enzyme; 0.54 µM in experiment [1]; 1.55 µM in experiment [2] (Homo sapiens, Jurkat, 48 h).
On to `CN(C(=O)CCO)[C@@H](c1ccc(NC2Cc3ccccc3C2(C)C)cc1)C(F)(F)F` (single isomer, unassigned) [Example 35], for which the figures for the concentration for half-maximal inhibition (IC50) (on FL hMALT1 enzyme; in experiment [1]; in experiment [2] (48 hours)) were 0.027 µM, 0.29 µM and 3.76 µM, respectively.
The corresponding values for `CC(=O)NCCC(=O)N(C)[C@@H](c1ccc(NC2Cc3ccccc3C2(C)C)cc1)C(F)(F)F` (single isomer, unassigned) [Example 24] are 0.089 µM, 0.16 µM and 0.87 µM.
The corresponding values for `CN(C(=O)c1cc[nH]c(=O)c1)C(c1ccc(NC2Cc3ccccc3C2(C)C)cn1)C(F)(F)F` (single isomer, unassigned) [Example 98, N-(1-(5-((1,1-Dimethyl-2,3-dihydro-1H-inden-2-yl)amino)pyridin-2-yl)-2,2,2-trifluoroethyl)-N-methyl-2-oxo-1,2-dihydropyridine-4-carboxamide] are 0.59 µM, 0.21 µM and 0.88 µM.
`CN(C(=O)CN1CC(=O)NC1=O)[C@@H](c1ccc(NC2Cc3ccccc3C2(C)C)cc1)C(F)(F)F` (single isomer, unassigned) [Example 67]: the IC50 against FL hMALT1 enzyme is 0.078 µM; in experiment [1], 0.45 µM; in experiment [2] (48 hours), 5.97 µM.
As for `CN(C(=O)CN1CCCC1=O)[C@@H](c1ccc(NC2Cc3ccccc3C2(C)C)cc1)C(F)(F)F` (single isomer, unassigned) [Example 45], the half-maximal inhibitory concentration (IC50) at FL hMALT1 enzyme was determined as 0.18 µM; in experiment [1] it was 0.24 µM; in experiment [2] (Homo sapiens, Jurkat, 48 h), 0.73 µM.
Consider `COCC(=O)N(C)[C@@H](c1ccc(NC2Cc3ccccc3C2(C)C)cc1)C(F)(F)F` (single isomer, unassigned) [Example 28], for which the IC50 is 0.2 µM against FL hMALT1 enzyme, 0.29 µM in experiment [1] and 2.61 µM in experiment [2] (48 hours).
In the case of `CN(C(=O)C1CN(S(C)(=O)=O)C1)[C@@H](c1ccc(NC2Cc3ccccc3C2(C)C)cc1)C(F)(F)F` (single isomer, unassigned) [Example 68], the values for the IC50 (at FL hMALT1 enzyme; in experiment [1]; in experiment [2] (48 hours)) were 0.015 µM, 0.19 µM and 0.12 µM, respectively.
On to `CN1CC(C(=O)N(C)[C@@H](c2ccc(NC3Cc4ccccc4C3(C)C)cc2)C(F)(F)F)C1` (single isomer, unassigned) [Example 76], for which the IC50 was 0.036 µM on FL hMALT1 enzyme, 0.22 µM in experiment [1] and 0.5 µM in experiment [2] (48 hours).
With `CN(C(=O)CCO)[C@@H](c1ccc(NC2Cc3ccccc3C2(C)C)cc1)C(F)(F)F` (single isomer, unassigned) [Example 34], the IC50 against FL hMALT1 enzyme came to 0.085 µM; in experiment [1], 0.17 µM; in experiment [2] (Homo sapiens, Jurkat, 48 h), 4.98 µM.
As for `CN(C(=O)C1CCOCC1)[C@@H](c1ccc(NC2Cc3ccccc3C2(C)C)cc1)C(F)(F)F` (single isomer, unassigned) [Example 18], the figures for the half-inhibitory concentration (IC50) (against FL hMALT1 enzyme; in experiment [1]; in experiment [2] (48 hours)) were 0.12 µM, 0.33 µM and 0.52 µM, respectively.
For `CN(C(=O)C1CCS(=O)(=O)CC1)[C@@H](c1ccc(NC2Cc3ccc(Cl)cc3C2)cc1)C(F)(F)F` (single isomer, unassigned) [Example 56], the IC50 on FL hMALT1 enzyme turned out to be 0.014 µM; in experiment [1], 0.15 µM; in experiment [2] (48 hours) it was 0.093 µM.
The corresponding values for `CN(C(=O)CCN1CCCC1=O)[C@@H](c1ccc(NC2Cc3ccccc3C2(C)C)cc1)C(F)(F)F` (single isomer, unassigned) [Example 47] are 0.11 µM, 0.17 µM and 2.35 µM.
Take `CC1(C)c2ccccc2CC1Nc1ccc([C@H](NC(=O)C2CCS(=O)(=O)CC2)C(F)(F)F)cc1` (single isomer, unassigned) [Example 81]: the IC50 against FL hMALT1 enzyme was 0.8 µM; in experiment [1], 1.44 µM; in experiment [2] (Homo sapiens, Jurkat, 48 h), 3.86 µM.
As for `CN(C(=O)C1CCS(=O)(=O)CC1)[C@@H](c1ccc(NC2Cc3ccc(Cl)cc3C2)cc1)C(F)(F)F` (single isomer, unassigned) [Example 55], the IC50 against FL hMALT1 enzyme was found to be 0.22 µM; in experiment [1], 0.52 µM; in experiment [2] (48 hours), 4.57 µM.
`CN(C(=O)C1CNC1)C(c1ccc(NC2Cc3ccccc3C2(C)C)nc1)C(F)(F)F` (single isomer, unassigned) [Example 87, N-(1-(6-((1,1-Dimethyl-2,3-dihydro-1H-inden-2-yl)amino)pyridin-3-yl)-2,2,2-trifluoroethyl)-N-methylazetidine-3-carboxamide]: the IC50 at FL hMALT1 enzyme is 0.47 µM; in experiment [1], 1.22 µM; in experiment [2] (Homo sapiens, Jurkat, 48 h), 1.13 µM.
The corresponding values for `CN(C(=O)N1CCOCC1)[C@@H](c1ccc(N[C@@H]2Cc3ccccc3C2(C)C)cc1)C(F)(F)F` (single isomer, unassigned) [Example 13] are 0.4 µM, 0.4 µM and 1.93 µM.
The corresponding values for `CN(C(=O)c1cc[nH]c(=O)c1)[C@@H](c1ccc(NC2Cc3ccccc3C2(C)C)cc1)C(F)(F)F` (single isomer, unassigned) [Example 20] are 0.24 µM, 0.21 µM and 0.51 µM.
`CC(=O)NCC(=O)N(C)[C@@H](c1ccc(NC2Cc3ccccc3C2(C)C)cc1)C(F)(F)F` (single isomer, unassigned) [Example 40]: the half-maximal inhibitory concentration (IC50) came to 0.077 µM on FL hMALT1 enzyme, 0.23 µM in experiment [1] and 1.35 µM in experiment [2] (48 hours).
The corresponding values for `CC(=O)N1CC(C(=O)N(C)[C@@H](c2ccc(NC3Cc4ccccc4C3(C)C)cc2)C(F)(F)F)C1` (single isomer, unassigned) [Example 7] are 0.068 µM, 0.19 µM and 0.82 µM.
The corresponding values for `COCC(=O)N(C)[C@@H](c1ccc(NC2Cc3ccccc3C2(C)C)cc1)C(F)(F)F` (single isomer, unassigned) [Example 29] are 0.014 µM, 0.16 µM and 0.69 µM.
Consider `CN(C(=O)C1CCS(=O)(=O)CC1)[C@@H](c1ccc(NC2Cc3ccccc3C2(C)C)cc1)C(F)(F)F` (single isomer, unassigned) [Example 1], for which the IC50 against FL hMALT1 enzyme was 0.007 µM; in experiment [1] it was 0.14 µM; in experiment [2] (Homo sapiens, Jurkat, 48 h) it was 0.43 µM.
For the compound `CN(C(=O)CCN1CCCC1=O)[C@@H](c1ccc(NC2Cc3ccccc3C2(C)C)cc1)C(F)(F)F` (single isomer, unassigned) [Example 48], the figures for the IC50 (against FL hMALT1 enzyme; in experiment [1]; in experiment [2] (48 hours)) were 0.017 µM, 0.14 µM and 1.16 µM, respectively.
